{
  "source": "patent US20130252890A1",
  "about": "“6,7-DIHYDRO-5H-BENZO[7]ANNULENE DERIVATIVES, PROCESS FOR PREPARATION THEREOF, PHARMACEUTICAL PREPARATIONS COMPRISING THEM, AND THE USE THEREOF FOR PRODUCTION OF MEDICAMENTS” (BAYER INTELLECTUAL PROPERTY GMBH, priority 2010, published 2013)",
  "key": {"[1]": {"test_system": "bone mass and uterus weight", "test": "Antagonistic action on bone mass and uterus weight in hormonally intact rats", "type": "in vivo, Sprague-Dawley rats", "conditions": "adult hormonally intact rats, oral 1-10 mg/kg, 2 months", "experimental": "Application was oral, in peanut oil/ethanol. The animals were killed on the day after the last application and the tibia and uteri were removed. The uteri were weighed, fixed and prepared for optional histological investigations. Bone density was determined on long bones by pQCT (quantitative computed tomography), once before the treatment, once on the day of autopsy. The variations for this parameter were shown correspondingly between these two reference points (values below 100 correspond to a decrease in bone mass density, values above 100 to an increase). The control group was a group of animals from which the ovaries had been removed (OVX) (due to ovariectomy, as expected there is a decrease in density of the trabecular bone in the measured range over the period of the experiment). All other animals underwent a SHAM-OP (a sham operation) (without the ovaries being removed) in addition to the application treatment. The changes in relative uterus weights served as the reference for the anti-oestrogenic action."}, "uterus [2]": {"test_system": "uterus", "test": "Oestrogenic action - uterus growth test in the infantile rat", "type": "in vivo", "conditions": "sc, 72 h, s.c. 3 days, maximum at dose 0.1 mg/kg, relative to E2 0.3 μg/animal, read-out: maximum uterotropic action (% estradiol action) in the dose range from 0.03 to 3 mg/kg", "experimental": "Both the uterus and the vagina show a weight increase that is dependent on oestrogenic efficacy, in infantile animals when they are treated with a substance with oestrogenic action. In the uterus, under oestrogenic action there is also proliferation and increase in height of the luminal epithelium.\nImmature, intact rats (n=5-6 animals/group; body weight 40-50 g) receive the substance s.c. for 3 days (d1-d3). On day 4 (d4) the animals are killed with CO2. The uteri are removed and weighed. For histological assessment, a piece of uterus, preferably a uterine horn, is fixed in formaldehyde and embedded in paraffin. The stimulation of the organ weights (relative to mg/100 g body weight) and the height of the epithelium are shown as percentage stimulation in comparison with the reference compound 17β-estradiol (E2). (Substitution dose of E2 0.3 μg/animal)."}, "uterus [3]": {"test_system": "uterus", "test": "Anti-uterus growth test in the adult rat", "conditions": "sc, 72 h; ovariectomized adult rat, s.c. 3 days with 1.5 μg/kg/day 17β-estradiol; inhibition of uterus growth; value of 44 is a mean of two measurements; read-out: anti-oestrogenic activity in vivo in % at a dose of 0.3 mg/kg (rat)", "summary_of_the_method": "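Rats ovariectomized 6–10 days earlier (n=5–6/group) received test substances s.c. on days 1–3 together with 17β-estradiol at 1.5 μg/kg/day; estradiol alone and excipients served as controls. On day 4, uterus and vagina weights were normalized to mg/100 g body weight. Inhibition of estradiol-induced uterine growth is given as a percentage.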"}, "endometriosis lesions": {"test_system": "endometriosis lesions", "test": "Endometriosis model in the rat (autologous transplantation)", "type": "in vivo", "description": "Using intact adult female rats, experimental endometriosis was induced in the autologous transplantation model based on Vernon M. W. and Wilson E. A., 1985 (Fertil Steril. 44(5):684-694). A uterine horn was removed from animals that were exclusively in oestrus, the myometrium was separated from the endometrium and biopsies with dimensions of 4×4 mm were obtained from the endometrial tissue. Two uterine fragments were transplanted onto the inside of the abdominal wall (peritoneum) and two uterine fragments were transplanted onto the mesenterium of the same animal (4 fragments per animal). After 21 days the animals with endometriosis were laparotomized, and the size of the transplants was determined. The animals were treated after laparotomy and then daily in the morning with the stated dosages of the selected claimed substances by subcutaneous administration. Finally, 28 days after the start of treatment (49 days after transplantation), all the animals were laparotomized again and the size of the lesion was measured and was correlated with the size before the start of treatment."}, "[4]": {"test_system": "peripheral cholesterol level", "test": "Hepatic oestrogenicity in the ovariectomized adult rat (plasma cholesterol)", "type": "in vivo", "conditions": "ovariectomized adult rats, s.c. daily for 6 days; cholesterol day 0 vs day 8", "description": "Substances with oestrogenic action influence the synthesis of various plasma proteins, of coagulation factors and fibrinolytic factors in the liver. […] In the present investigations, lowering of the peripheral cholesterol level is used as a surrogate parameter for analysis of the hepatic oestrogenicity of the claimed pharmacological compounds. Adult ovariectomized rats were, after a pause of 6-10 days, treated daily for 6 days with the substances by subcutaneous application. The plasma cholesterol levels were determined and compared before and after the respective treatment."}, "mammary gland": {"test_system": "mammary gland", "test": "Action on the mammary gland in the juvenile rat", "type": "in vivo", "conditions": "juvenile ovariectomized rats, 6 days", "experimental": "The formation of secretory units in the mamma is dependent in particular on gestagens and oestrogens. […] To investigate the stimulating action of test compounds, animals are ovariectomized at the age of 21 days and after a treatment-free interval of 6 days treated either with a combination of the test compound and an oestrogen (for example 70 μg/kg E1) or a combination of the test compound and a gestagen (for example promegestone 0.3 mg/kg) in each case for a period of 6 days. To investigate the antagonistic potential of a test compound, the test compound is given for a period of 6 days together with an oestrogen (see above) and a gestagen (see above). Finally one of the abdominal-inguinal mammary glands is prepared and submitted to so-called whole-mount staining. The number of secretory units on an area of approx. 1.0 mm^2 serves as the end point (moreover, this can also vary according to requirements)."}, "[5]": {"test_system": "ovarian estradiol synthesis", "test": "Stimulation of ovarian oestrogen synthesis (HPG axis) in intact adult rats", "type": "in vivo, rat", "conditions": "hormonally intact adult rats, daily for 10 days; quotient of peripheral estradiol values after and before treatment", "description": "The clinical use both of pure anti-oestrogens and of various SERMs for the treatment of premenopausal women is limited by their property of stimulating the ovaries through activation of the hypothalamic-pituitary-gonadal axis (HPG axis), which leads to the increase in peripheral estradiol levels (Palomba, S., Orio, F., Jr., Morelli, M., Russo, T., Pellicano, M., Zupi, E., Lombardi, G., Nappi, C., Panici, P. L., and Zullo, F. (2002). Raloxifene administration in premenopausal women with uterine leiomyomas: a pilot study. J Clin Endocrinol Metab 87, 3603-3608). This stimulation of the HPG axis is associated with penetration of the blood-brain barrier and penetration of the brain. To investigate the ovary-stimulating properties of the claimed pharmacological compounds, hormonally intact adult rats were treated with the substances daily for a period of 10 days. The study end point is the quotient of peripheral estradiol values after and before treatment."}},
  "note": "Entries after “also recorded” stand apart in the source; their conditions may differ.",
  "data": [
    {"smiles": "CN(CCCCCCC1=C(c2cc(F)cc(F)c2)CCCc2cc(O)ccc21)CCCCS(=O)(=O)CCCC(F)(F)F", "note": "[Example 44, 8-(3,5-Difluorophenyl)-9-[6-(methyl{4-[(4,4,4-trifluorobutyl)sulphonyl]butyl}amino)hexyl]-6,7-dihydro-5H-benzo[7]annulen-3-ol]", "values": [
      {"measurement": "effect on relative uterus weight (anti-oestrogenic action)", "setting": "[1]", "result": "dose-dependent anti-oestrogenic action on the uterus; also recorded: dose-dependent decrease"},
      {"measurement": "trabecular bone mass density of the tibia", "setting": "[1]", "result": "not reduced; also recorded: does not show a significant decrease in bone mass density at any of the tested dosages"},
      {"measurement": "Emax at 0.1 mg/kg", "setting": "uterus [2]", "result": 6, "unit": "%"},
      {"measurement": "inhibition in vivo at 0.3 mg/kg", "setting": "uterus [3]", "result": 37, "unit": "%"},
      {"measurement": "peripheral (blood) estradiol level of the treated animals", "setting": "endometriosis lesions; animals of the FIG. 2C experiment (FIG. 2D)", "result": "does not lead to an increase in peripheral estradiol level above the physiological range; also recorded: None of the groups treated with example compound 44 in the stated dosages shows levels above or below the naturally occurring estradiol levels"},
      {"measurement": "reduction of lesion sizes, independent experiment", "setting": "endometriosis lesions; rat, 0.3 mg/kg to 13 mg/kg, three dosages (FIG. 2C)", "result": "significant dose-dependent reduction of lesion sizes; also recorded: all three dosages lead to a significant reduction of the lesion"},
      {"measurement": "dosage with significant reduction in sizes of lesions", "setting": "endometriosis lesions; rat, 28 days of treatment, 115 tested 0.1-1 mg/kg, 44 tested 0.3-10 mg/kg", "result": "≥ 1", "unit": "mg/kg"},
      {"measurement": "reduction of lesion size", "setting": "endometriosis lesions; rat, s.c. daily, 4 weeks (FIG. 2A, FIG. 2B)", "result": "significant dose-dependent reduction of lesion size"},
      {"measurement": "hepatic oestrogenicity: lowering of the peripheral cholesterol level", "setting": "[4]", "result": "only observed at high dosage"},
      {"measurement": "induction of mammary gland differentiation (agonistic potential)", "setting": "mammary gland; test compound alone with gestagen R5020 or alone with oestrogen E1", "result": "no induction of mammary gland differentiation significantly different from the group given excipients; also recorded: did not show any agonistic, inducing potential"},
      {"measurement": "formation of mammary secretory units induced by E1 and R5020", "setting": "mammary gland; test compound with oestrogen E1 and gestagen promegestone (R5020)", "result": "dose-dependent inhibition; also recorded: dose-dependent reduction of this effect"},
      {"measurement": "Stimulation of ovarian oestrogen synthesis: factor at a dose of 3 mg/kg rat", "setting": "[5]", "result": 1.2}
    ]}
  ]
}
